The values below come from patent US20040014681A1, “Method for treating dermatoses and tissue damage” (priority 2002, published 2004).

A short description of assay [1]: Case examples: topical treatment of contact dermatitis to jewelry. Conditions: Case 5, adult, recurring red oozing dermatitis under gold and stone ring. The class given is in vivo, human. As for the experimental part:
(§1) The following non-limiting case examples are presented to further illustrate the present invention: In the following examples, unless otherwise stated, the ointment contained about 0.15-0.22 mg of topiramate per ml of ointment (Thermaderm, an aqueous vanishing cream emollient) and sodium bicarbonate in an amount to provide a pH of about 7.8-8.
Case 5: Contact dermatitis to jewelry. […] This was usually treated with topical 0.1% mometasone furoate once daily for six or seven days with clearing of the lesion.
Case 6. Contact dermatitis to jewelry. An adult presented with a recurring red oozing dermatitis under a tight fitting silver/gold stone bracelet on their left wrist occurring especially during the winter and usually treated with topical corticosteroids over a five day period. Topiramate cream/ointment was applied daily with complete clearing in two days.

For assay [2] the following is noted: adjunctive therapy or monotherapy; cited from earlier work.
The conditions of assay [3]: several rodent models of epilepsy and an animal model of kindled epilepsy; cited from earlier work.
Assay [4] can be described thus: Case examples: topical treatment of poison ivy lesions. Conditions: Case 4, young person, poison ivy lesions on back, once a day application. The format is in vivo, human. On the procedure:
as §1
Case 3: Poison Ivy—A young child with known sensitivity to poison ivy presents with typical raised red vesicular lesions on their hands and left forearm. Topiramate cream/ointment was applied daily with the disappearance of lesions after 3 days.
Case 4: Poison Ivy—A young person having a history of extreme sensitivity to poison ivy presented with the entire right lower quadrant of their back covered with red, vesicular, and oozing lesions. These lesions cleared after four days of once a day application of Topiramate, at which time the application was stopped, leaving the skin dry with dead scales/scabs. The patient was seen four days later in this condition and began to apply Topirmate cream/lotion ever other day with complete resolution over the next six days.

For the compound `C[C@@H]1C[C@H]2[C@@H]3CCC4=CC(=O)C=C[C@]4(C)[C@@]3(Cl)[C@@H](O)C[C@]2(C)[C@@]1(OC(=O)c1ccco1)C(=O)CCl` [mometasone furoate], the “time until clearing of the lesion” value in assay [1] is given as “six or seven”.
Turning to `CC1(C)O[C@@H]2[C@@H](CO[C@@]3(COS(N)(=O)=O)OC(C)(C)O[C@@H]23)O1` [topiramate, 2,3:4,5-bis-O-(1-methylethylidence)-β-D-fructopyranose sulfamate], the “efficacy in clinical trials of human epilepsy” value in assay [2] is “effective as adjunctive therapy or as monotherapy”. Moreover, the block of seizures result in assay [3] is on record as “effectively block seizures”. In assay [4], the “time until lesions cleared” value is given as “four”.
